Experimental data as given in patent US20240351999A1, “PYRROLYLACYLPIPERIDYLAMINE COMPOUND AND USE THEREOF” (INSTITUTE OF MATERIA MEDICA ,CHINESE ACADEMY OF MEDICAL …, priority 2021, published 2024).
In brackets after ≈: the same amount, converted by molar mass.

Tests used:
[1] = tested on: Staphylococcus aureus ATCC 25923; assay: In vitro antibacterial activity (MIC), microbroth dilution; assay type: cell-based; settings: ATCC25923, 37° C., 18 h
[2] = tested on: Staphylococcus epidermidis MRSE 15-1; assay: as above; assay type: cell-based; settings: 37° C., 18 h
[3] = tested on: Staphylococcus aureus ATCC 29213; assay: In vitro induced drug resistance, 20 generations at sub-MIC; assay type: cell-based; settings: ATCC29213, read-out: MIC value after passage for 20 generations
Protocol: Test method: MIC values of a compound 1 and a control compound DS2969 against Staphylococcus aureus ATCC 29213 were determined by using a microbroth dilution method recommended by operating procedures for antibacterial susceptibility testing of the Clinical and Laboratory Standards Institute (CLSI).
After testing the MIC values, sub-MIC concentrations (1/2 MIC) of bacteria were diluted, and the concentration of the obtained bacterial solution was adjusted to 105 CFU/mL for a next round of MIC value testing. After 24 hours of incubation, bacterial suspensions were prepared by using bacterial suspensions at sub-MIC concentrations of drugs (1/2 MIC), and another MIC testing was performed. This process was repeated for 20 times, and the MIC value for each test was recorded.
The MIC values of the compound 1 and DS2969 inducing Staphylococcus aureus ATCC29213 for 20 generations were recorded, with the number of generations of bacteria induced as an abscissa and the MIC values as an ordinate (as shown in FIG. 1).

[4] = tested on: Escherichia coli ECO+ 15-1; assay: In vitro antibacterial activity (MIC), microbroth dilution; assay type: cell-based; settings: 37° C., 18 h, read-out: MIC Escherichia coli ECO+ 15-1
[5] = tested on: Staphylococcus aureus (MRSA, ATCC 43300); assay: Antibacterial activity in mice, sepsis model; assay type: in vivo, ICR mice; settings: Staphylococcus aureus, po; MRSA ATCC 43300 sepsis model, intragastric administration at lower dose
Protocol: Experimental animals: Beijing Vital River Laboratory Animal Technology Co., Ltd., ICR mice, with a uniform body weight of 20-22 g, and half male and half female.
Model: Sepsis model infected by Staphylococcus aureus (MRSA, ATCC 43300)
Modeling method: mice were infected with […] (diluted with a 5% sterile yeast solution) Staphylococcus aureus (MRSA, ATCC 43300) such that sepsis models of mice were formed (0.5 mL of a bacterial solution was injected intraperitoneally into each mouse).
Experimental scheme: a compound 1 and a positive drug were first dissolved in DMSO, and then diluted with other solvents, wherein a solvent ratio was saline:Tween 80:DMSO=9:0.5:0.5.

[6] = tested on: Mycobacterium tuberculosis; assay: Activity against Mycobacterium tuberculosis (MIC); assay type: cell-based; settings: read-out: Inhibitory activity (MIC) against Mycobacterium tuberculosis
[7] = tested on: Enterococcus faecium EFM 19-1; assay: In vitro antibacterial activity (MIC), microbroth dilution; assay type: cell-based; settings: EFM191, 37° C., 18 h
[8] = tested on: Escherichia coli ATCC25922; settings: prior art value; cited from earlier work
[9] = tested on: Staphylococcus epidermidis ATCC 12228; assay: In vitro antibacterial activity (MIC), microbroth dilution; assay type: cell-based; settings: ATCC12228, 37° C., 18 h
[10] = tested on: Clostridium difficile ATCC 9689; assay: as above; assay type: cell-based; settings: Clostridioides difficile, ATCC9689; read-out: MIC Clostridium difficile ATCC 9689
[11] = tested on: Staphylococcus aureus ATCC 29213; settings: prior art value; cited from earlier work
[12] = tested on: Pseudomonas aeruginosa ATCC 27853; assay: In vitro antibacterial activity (MIC), microbroth dilution; assay type: cell-based; settings: ATCC27853, 37° C., 18 h, read-out: MIC Pseudomonas aeruginosa ATCC 27853
[13] = tested on: Acinetobacter baumannii ATCC 19606; assay: as above; assay type: cell-based; settings: ATCC19606, 37° C., 18 h, read-out: MIC Acinetobacter baumannii ATCC 19606
[14] = tested on: Escherichia coli ATCC 35218; assay: as above; assay type: cell-based; settings: ATCC35218, 37° C., 18 h, read-out: MIC Escherichia coli ATCC 35218
[15] = tested on: Enterococcus faecalis ATCC 51575; assay: as above; assay type: cell-based; settings: ATCC51575, 37° C., 18 h
[16] = tested on: Staphylococcus aureus ATCC 29213; assay: as above; assay type: cell-based; settings: ATCC29213, 37° C., 18 h
[17] = tested on: Klebsiella pneumoniae KPN-15-1; assay: as above; assay type: cell-based; settings: KPN151, 37° C., 18 h, read-out: MIC Klebsiella pneumoniae KPN-15-1
[18] = tested on: Staphylococcus aureus ATCC 43300 (MRSA); assay: as above; assay type: cell-based; settings: 37° C., 18 h, read-out: MIC Staphylococcus aureus ATCC 43300 (MRSA)
[19] = tested on: Escherichia coli ATCC 25922; assay: as above; assay type: cell-based; settings: ATCC25922, 37° C., 18 h, read-out: MIC Escherichia coli ATCC 25922
[20] = tested on: Staphylococcus aureus MRSA 15-1; assay: as above; assay type: cell-based; settings: 37° C., 18 h

## CCc1[nH]c(C(=O)N[C@@H]2CCN(c3nnc(C(C)(C)O)s3)C[C@@H]2OC)nc1Cl [DS2969, reference compound]
[1]
  MIC: 0.5 µg/mL (≈ 1.17 µM)
[2]
  MIC: 0.5 µg/mL (≈ 1.17 µM)
[3]
  MIC: 16 µg/mL (≈ 37.3 µM)
[4]
  MIC: > 64 µg/mL
[5]
  ED50: > 10 mg/kg
[6]
  MIC: 0.654 µg/mL (≈ 1.52 µM)
[7]
  MIC: 0.5 µg/mL (≈ 1.17 µM)
[8]
  MIC Escherichia coli ATCC25922 (background): 32 µg/mL (≈ 74.6 µM)
[9]
  MIC: 0.5 µg/mL (≈ 1.17 µM)
[10]
  MIC: 0.5 µg/mL (≈ 1.17 µM)
[11]
  MIC Staphylococcus aureus ATCC 29213 (background): 0.2 µg/mL (≈ 0.466 µM)
[12]
  MIC: > 64 µg/mL
[13]
  MIC: > 64 µg/mL
[14]
  MIC: 32 µg/mL (≈ 74.6 µM)
[15]
  MIC: 0.5 µg/mL (≈ 1.17 µM)
[16]
  MIC: 0.5 µg/mL (≈ 1.17 µM)
[17]
  MIC: > 64 µg/mL
[18]
  MIC: 0.5 µg/mL (≈ 1.17 µM)
[19]
  MIC: 32 µg/mL (≈ 74.6 µM)
[20]
  MIC: 0.5 µg/mL (≈ 1.17 µM)
